What all share (experiment): growth of human tumour cells (NCI), 48 h
The subject of test [1] is M14 melanoma.
Test [2] concerns UACC-62 melanoma.
The test system of test [3] is UACC-257 melanoma.
Test [4] deals with SK-MEL-28 melanoma.
Test [5] concerns ACHN renal.
The test system of test [6] is NCI-H23 lung.
Test [7] relates to CAKI-1 renal.
Test [8] relates to OVCAR-8 ovarian.
Test [9] has as its system MDA-MB-435.

Molecules are shown by their SMILES.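 Following 48 hours of exposure in 96-well plates, responses at five concentrations were used to interpolate endpoints linearly. At the GI50, growth is halved. At the TGI there is no net growth.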 A value given as a limit tells only on which side of the number the result lay.

For the compound `O=C(CC1(O)C(=O)Nc2ccccc21)c1ccc(O)cc1` (stereo unspecified), the TGI in test [1], in test [2], in test [3], in test [4], in [5] and in test [6] was over 100 µM each time. The compound also yielded a TGI in test [7] of over 100 µM.
`Clc1ccc2nc(-c3ccccc3)nc(Cl)c2c1`: the TGI is over 100 µM in test [8]; over 100 µM in test [2]; over 100 µM in test [3]; over 100 µM in [4]; 76.9 µM in test [5]; over 100 µM in test [6]. In test [7], this compound came in with a TGI of 54.9 µM.
As to `COc1ccc2c(Cl)cc(NC(=O)Nc3c(C)cccc3C)nc2c1`, the GI50 in [8] is 24.7 µM; in [9] it was 13.4 µM; in [1], 31.8 µM; in test [2] it was 64.3 µM; in test [3], 20 µM; in [4], 31 µM. For the same compound, the GI50 is 3.59 µM in test [5], 76.9 µM in [6] and 5.27 µM in [7]. The TGI is over 100 µM in test [8]; 40.5 µM in test [9]; over 100 µM in [1]; over 100 µM in [2]; over 100 µM in test [3]; over 100 µM in test [4]. Further, the TGI was 24.7 µM in test [5], over 100 µM in test [6] and over 100 µM in test [7].
For the compound `CC(CNCCCNCCNCCCNCO)[N+](=O)[O-]` (stereo unspecified), the TGI was determined as 27.9 µM in [8]; 23.6 µM in test [1]; 29.9 µM in [2]; 26.1 µM in test [3]; 26.6 µM in test [4]; 30.3 µM in test [5]. For the same compound, the figures for the TGI in test [6] and in test [7] were 28.6 µM and 18.6 µM, respectively.
On to `O=S(=O)([O-])[O-].[Cl-].[NH2-].[NH2-].[NH2-].[NH2-].[Ru+3].c1ccncc1`, for which the TGI in test [8], in [1], in [2], in test [3], in [4] and in [5] was over 100 µM each time. For the same compound, the TGI in [6] and in [7] was over 100 µM throughout.
For `Cc1cccc(N2C(=O)C(=O)C(c3nc4ccccc4s3)/C(=N/NC(=S)NN)C2=O)c1C` (stereo unspecified), the TGI in [8], in [1], in test [2], in test [3], in test [4] and in test [5] was over 100 µM in each case. The TGI in test [6] and in test [7] was over 100 µM in each case.
For `CCOC(=O)C1=C(C)N(NC(N)=O)C(C)(O)C12CCOC2=O` (stereo unspecified), the TGI in test [8], in test [1], in test [2], in test [3], in [4] and in test [5] was over 100 µM throughout. In addition, the TGI in test [7] is over 100 µM.
With `O=[N+]([O-])c1ccc(/C=C/c2csnn2)cc1`, the TGI in test [8], in [1], in test [2], in [3], in [4] and in test [5] was over 100 µM throughout. The TGI in test [6] and in [7] was over 100 µM in each case.
As for `CC(/C=C/c1ccccc1)=N\NC(N)=S`, the TGI in test [8] was over 100 µM; in [9], 84.4 µM; in test [1], 88.4 µM; in test [3] it was over 100 µM; in test [4] it was over 100 µM; in test [5], over 100 µM. The TGI in test [6] and in [7] was over 100 µM throughout.
Consider `COC(=O)N/N=C(/CCC(=O)Nc1ccc(C)c(C)c1)CC(=O)C(C)(C)C`, for which the TGI in test [8], in test [1], in test [2], in test [3], in test [4] and in test [5] was over 100 µM in each case. Besides, the TGI in test [6] and in [7] was over 100 µM in each case.
For the compound `O=[N+]([O-])c1ccccc1C=NC12CC3CC(CC(C3)C1)C2`, the TGI in test [8], in test [1], in test [2], in test [3], in [4] and in test [5] was over 100 µM each time. For the same compound, the TGI in [6] and in test [7] was over 100 µM each time.
On to `O=[N+]([O-])c1cc(Cl)ccc1OCc1ccccc1`, for which the TGI in test [8], in [1], in test [2], in [3], in test [4] and in test [5] was over 100 µM in each case. In [6], this compound yielded a TGI of 96.5 µM.
In the case of `COc1cc2c(cc1OC)NC(=O)NC(Cc1ccc3c(c1)OCO3)CC2` (stereo unspecified), the TGI in test [8], in [1], in [2], in test [3], in test [4] and in test [5] was over 100 µM in each case. The TGI in test [6] and in test [7] was over 100 µM throughout.
Take `Cc1cc(C(=O)O)c(C)n1-c1cccc(C(=O)O)c1`: the GI50 in [8], in [9], in [1], in test [2], in [3] and in test [4] was over 100 µM in each case. Also, the GI50 in [5] and in [6] was over 100 µM throughout. For the same compound, the TGI in test [8], in test [9], in [1], in test [2], in [3] and in test [4] was over 100 µM each time. Besides, the TGI in [5] and in test [6] was over 100 µM each time.

For the origin of these results see PubChem BioAssay (NCI).
